Data on six molecules can be found in US20130035229A1 (priority 2010, published 2013).

The test system of assay [1] is Botrytis cinerea. Nature of the assay: Microtest: activity against the grey mold pathogen Botrytis cinerea (micro titer plate, absorption 405 nm, 7 days). As to conditions: single compound, 7 days after inoculation. It counts as cell-based.
Assay [2] relates to Pyricularia oryzae. It counts as cell-based. As to conditions: single compound, 7 days after inoculation.

SMILES strings stand for the structures. Like-named read-outs stand apart in the source and are kept apart here.

Turning to `Fc1cccc([C@@]2(Cn3ncnc3S)O[C@@H]2c2ccccc2Cl)c1` (relative stereo) [II-1, 2-[rel-(2S;3R)-3-(2-chlorophenyl)-2-(3-fluorophenyl)-oxiranylmethyl]-2H-[1,2,4]triazole-3-thiol], the Observed efficacy in assay [1] (16 ppm) was determined as 8%; in assay [1] (63 ppm), 24%; in assay [2] (63 ppm), 27%. Consider `Fc1ccc(F)c2c(NCCc3ccc(Oc4cc(C(F)(F)F)ccn4)cc3)ncnc12` [I-5, (5,8-Difluoro-quinazolin-4-yl)-{2-[4-(4-trifluoromethyl-pyridin-2-yloxy)-phenyl]-ethyl}-amine], for which the Observed efficacy is reported as 14% in assay [1] (1 ppm) and 58% in assay [2] (4 ppm). Take `COc1cc(CCNc2ncnc3c(F)ccc(F)c23)ccc1Oc1cc(C(F)(F)F)ccn1` [I-18, (5,8-Difluoro-quinazolin-4-yl)-{2-[4-(4-trifluoromethyl-pyridin-2-yloxy)-3-methoxy-phenyl]-ethyl}-amine]: the Observed efficacy came to 4% in assay [1] (4 ppm) and 57% in assay [2] (4 ppm). In assay [1] (1 ppm), `COc1cc(CCNc2ncnc3c(F)cc(F)c(F)c23)ccc1Oc1cc(C(F)(F)F)ccn1` [I-19, (5,6,8-Trifluoro-quinazolin-4-yl)-{2-[4-(4-trifluoromethyl-pyridin-2-yloxy)-3-methoxy-phenyl]-ethyl}-amine] displayed an Observed efficacy of 12%.

In turn, `Cn1cc(C(=O)Nc2ccccc2-c2cc(F)c(F)c(F)c2)c(C(F)F)n1` [Fluxapyroxad, reference compound] displayed an Observed efficacy in assay [1] (0.063 ppm) of 29%. On to `COc1cc(CCNc2ncnc3c(F)ccc(F)c23)ccc1Oc1ncc(C(F)(F)F)cc1Cl` [I-17, (5,8-Difluoro-quinazolin-4-yl)-{2-[4-(3-chloro-5-trifluoromethyl-pyridin-2-yloxy)-3-methoxy-phenyl]-ethyl}-amine], for which the values for the Observed efficacy in assay [1] (4 ppm) and in assay [2] (4 ppm) were 5% and 56%, respectively.
